Experimental data as given in patent US10961401B2, “UV cured benzophenone terminated quaternary ammonium antimicrobials for surfaces” (NANO SAFE COATINGS INCORPORATED, priority 2012, dated 2021).
Where a name gives a salt, the structure may show the parent alone.

Columns and labels:
[1] = test system: Pseudomonas spp. CTO7; assay: Flow-cell antimicrobial test: bacterial cell count in effluent of coated silicone tubing; assay type: cell-based; conditions: 100 μL effluent plated on 10% TSA
Protocol: Preparation of Self Assembled Monolayers on Silicone Tubing
Silicone tubing was rinsed with IPA and H2O using a peristaltic pump then dried by running air through the tubes. A 0.05% (w/v) solution of 8a in H2O and a 0.5% (w/v) solution of 4c in H2O/IPA were prepared. Tubes were coated using the peristaltic pump and filled tubes were irradiated using a UV fumehood for 25 minutes. Coated tubes were then rinsed with H2O to remove any unbound materials.
1.5% (w/v) solutions of 8a and 4c in dichloromethane (DCM) were prepared. These solutions were pumped through clean silicone tubing using a syringe and irradiated using a UV quartz lamp for 30 minutes.
Antimicrobial Test Method
The antimicrobial efficacy was determined using a flow-cell method as described in Markison C and Swan J, “The Effect of Humidity on the Survival of MRSA on Hard Surfaces”, Indoor and Built Environment, 2006, 15(1), 85-91. A 1% tryptic soy broth and an inoculum of 10×10^4 cfu/mL of Pseudomonas spp. CTO7 were pumped through silicone tubing coated with 8a, 4c and a control tube for 30 hours. The tubes were then left stagnant for a period of 2 hours after which only the 1% TSB was allowed to flow through the tubes for 48 hours. During these 48 hours effluent samples of 100 μL were collected periodically and plated on 10% trypticase soy agar (TSA) in a dilution series up to 10×10^4. Sampling periods were time zero, 3 hours, 6 hours, 24 hours, 27 hours, 30 hours, and 48 hours. The number of colonies grown on each plate was counted in order to determine antimicrobial activity.

[2] = time 0 hr, sample dilution 10^0
[3] = time 0 hr, sample dilution 10^−1
[4] = time 0 hr, sample dilution 10^−2
[5] = time 0 hr, sample dilution 10^−3
[6] = time 0 hr, sample dilution 10^−4
[7] = time 3 hr, sample dilution 10^0
[8] = time 3 hr, sample dilution 10^−1
[9] = time 3 hr, sample dilution 10^−2
[10] = time 3 hr, sample dilution 10^−3
[11] = time 3 hr, sample dilution 10^−4
[12] = time 6 hr, sample dilution 10^0
[13] = time 6 hr, sample dilution 10^−1
[14] = time 6 hr, sample dilution 10^−2
[15] = time 6 hr, sample dilution 10^−3
[16] = time 6 hr, sample dilution 10^−4
[17] = time 24 hr, sample dilution 10^0
[18] = time 24 hr, sample dilution 10^−1
[19] = time 24 hr, sample dilution 10^−2
[20] = time 24 hr, sample dilution 10^−3
[21] = time 24 hr, sample dilution 10^−4
[22] = time 27 hr, sample dilution 10^0
[23] = time 27 hr, sample dilution 10^−1
[24] = time 27 hr, sample dilution 10^−2
[25] = time 27 hr, sample dilution 10^−3
[26] = time 27 hr, sample dilution 10^−4
[27] = time 30 hr, sample dilution 10^0
[28] = time 30 hr, sample dilution 10^−1
[29] = time 30 hr, sample dilution 10^−2
[30] = time 30 hr, sample dilution 10^−3
[31] = time 30 hr, sample dilution 10^−4
[32] = time 48 hr, sample dilution 10^0
[33] = time 48 hr, sample dilution 10^−1
[34] = time 48 hr, sample dilution 10^−2
[35] = time 48 hr, sample dilution 10^−3
[36] = time 48 hr, sample dilution 10^−4

| Compound | Pseudomonas bacterial cell count on coated silicone tubing [1, 2] | Pseudomonas bacterial cell count on coated silicone tubing [1, 3] | Pseudomonas bacterial cell count on coated silicone tubing [1, 4] | Pseudomonas bacterial cell count on coated silicone tubing [1, 5] | Pseudomonas bacterial cell count on coated silicone tubing [1, 6] | Pseudomonas bacterial cell count on coated silicone tubing [1, 7] | Pseudomonas bacterial cell count on coated silicone tubing [1, 8] | Pseudomonas bacterial cell count on coated silicone tubing [1, 9] | Pseudomonas bacterial cell count on coated silicone tubing [1, 10] | Pseudomonas bacterial cell count on coated silicone tubing [1, 11] | Pseudomonas bacterial cell count on coated silicone tubing [1, 12] | Pseudomonas bacterial cell count on coated silicone tubing [1, 13] | Pseudomonas bacterial cell count on coated silicone tubing [1, 14] | Pseudomonas bacterial cell count on coated silicone tubing [1, 15] | Pseudomonas bacterial cell count on coated silicone tubing [1, 16] | Pseudomonas bacterial cell count on coated silicone tubing [1, 17] | Pseudomonas bacterial cell count on coated silicone tubing [1, 18] | Pseudomonas bacterial cell count on coated silicone tubing [1, 19] | Pseudomonas bacterial cell count on coated silicone tubing [1, 20] | Pseudomonas bacterial cell count on coated silicone tubing [1, 21] | also measured |
| --- | --- | --- | --- | --- | --- | --- | --- | --- | --- | --- | --- | --- | --- | --- | --- | --- | --- | --- | --- | --- | --- |
| CN(C)c1cccc2c(S(=O)(=O)NCCC[N+](C)(C)CCCCOc3ccc(C(=O)c4ccccc4)cc3)cccc12 (as salt: bromide) [Compound 8a, 4-(4-benzoylphenoxy)-N-(3-(5-(dimethylamino)naphthalene-1-sulfonamido)propyl)-N,N-dimethylbutan-1-ammonium bromide] | – | – | – | – | – | – | – | – | – | – | – | – | – | – | – | – | – | – | – | – | melting point: 96 to 104 °C |
| CCCCCCCCCCCCCCCCCC[N+](C)(C)CCCOc1ccc(C(=O)c2ccccc2)cc1 [Compound 4c] | 300 cfu/mL | 300 cfu/mL | 48 cfu/mL | 8 cfu/mL | 0 cfu/mL | 20 cfu/mL | 0 cfu/mL | 0 cfu/mL | 0 cfu/mL | 0 cfu/mL | 160 cfu/mL | 15 cfu/mL | 0 cfu/mL | 0 cfu/mL | 0 cfu/mL | 300 cfu/mL | 200 cfu/mL | 21 cfu/mL | 4 cfu/mL | 0 cfu/mL | Pseudomonas bacterial cell count on coated silicone tubing [1, 22]: 300 cfu/mL; Pseudomonas bacterial cell count on coated silicone tubing [1, 23]: 110 cfu/mL; Pseudomonas bacterial cell count on coated silicone tubing [1, 24]: 11 cfu/mL; Pseudomonas bacterial cell count on coated silicone tubing [1, 25]: 0 cfu/mL; Pseudomonas bacterial cell count on coated silicone tubing [1, 26]: 0 cfu/mL; Pseudomonas bacterial cell count on coated silicone tubing [1, 27]: 300 cfu/mL; Pseudomonas bacterial cell count on coated silicone tubing [1, 28]: 70 cfu/mL; Pseudomonas bacterial cell count on coated silicone tubing [1, 29]: 5 cfu/mL; Pseudomonas bacterial cell count on coated silicone tubing [1, 30]: 0 cfu/mL; Pseudomonas bacterial cell count on coated silicone tubing [1, 31]: 0 cfu/mL; Pseudomonas bacterial cell count on coated silicone tubing [1, 32]: 289 cfu/mL; Pseudomonas bacterial cell count on coated silicone tubing [1, 33]: 31 cfu/mL; Pseudomonas bacterial cell count on coated silicone tubing [1, 34]: 0 cfu/mL; Pseudomonas bacterial cell count on coated silicone tubing [1, 35]: 0 cfu/mL; Pseudomonas bacterial cell count on coated silicone tubing [1, 36]: 0 cfu/mL |
| CN(C)c1cccc2c(S(=O)(=O)NCCC[N+](C)(C)CCCCOc3ccc(C(=O)c4ccccc4)cc3)cccc12 [Compound 8a, 4-(4-benzoylphenoxy)-N-(3-(5-(dimethylamino)naphthalene-1-sulfonamido)propyl)-N,N-dimethylbutan-1-ammonium bromide] | 0 cfu/mL | 0 cfu/mL | 0 cfu/mL | 0 cfu/mL | 0 cfu/mL | 15 cfu/mL | 0 cfu/mL | 0 cfu/mL | 0 cfu/mL | 0 cfu/mL | 6 cfu/mL | 0 cfu/mL | 0 cfu/mL | 0 cfu/mL | 0 cfu/mL | 0 cfu/mL | 0 cfu/mL | 0 cfu/mL | 0 cfu/mL | 0 cfu/mL | Pseudomonas bacterial cell count on coated silicone tubing [1, 22]: 30 cfu/mL; Pseudomonas bacterial cell count on coated silicone tubing [1, 23]: 0 cfu/mL; Pseudomonas bacterial cell count on coated silicone tubing [1, 24]: 0 cfu/mL; Pseudomonas bacterial cell count on coated silicone tubing [1, 25]: 0 cfu/mL; Pseudomonas bacterial cell count on coated silicone tubing [1, 26]: 0 cfu/mL; Pseudomonas bacterial cell count on coated silicone tubing [1, 27]: 18 cfu/mL; Pseudomonas bacterial cell count on coated silicone tubing [1, 28]: 4 cfu/mL; Pseudomonas bacterial cell count on coated silicone tubing [1, 29]: 0 cfu/mL; Pseudomonas bacterial cell count on coated silicone tubing [1, 30]: 0 cfu/mL; Pseudomonas bacterial cell count on coated silicone tubing [1, 31]: 0 cfu/mL; Pseudomonas bacterial cell count on coated silicone tubing [1, 32]: 27 cfu/mL; Pseudomonas bacterial cell count on coated silicone tubing [1, 33]: 1 cfu/mL; Pseudomonas bacterial cell count on coated silicone tubing [1, 34]: 0 cfu/mL; Pseudomonas bacterial cell count on coated silicone tubing [1, 35]: 0 cfu/mL; Pseudomonas bacterial cell count on coated silicone tubing [1, 36]: 0 cfu/mL |
